Here are results for one molecule from ChEMBL document CHEMBL5209573, “Fluo-8 based assay for SLC24A2 using HEK293 SLC24A2 JumpIn OE cells” (2022).

The assay has as its target Sodium/potassium/calcium exchanger 2 (Homo sapiens, UniProt Q9UI40). Kind of assay: Substrate uptake by the Sodium/Potassium/Calcium Exchanger 2 (NCKX2, SLC24A2) as assessed by Screen Questtrade mark Fluo-8 NW calcium assay kit in HEK-293 JumpIN-SLC24A2 cells (PubChem AID: 1794815). Format: functional, cell-based, HEK293.

For orientation: EC50 means the midpoint of the concentration-response curve.

Sodium/potassium/calcium exchanger 2, sequence (Q9UI40 whole entry): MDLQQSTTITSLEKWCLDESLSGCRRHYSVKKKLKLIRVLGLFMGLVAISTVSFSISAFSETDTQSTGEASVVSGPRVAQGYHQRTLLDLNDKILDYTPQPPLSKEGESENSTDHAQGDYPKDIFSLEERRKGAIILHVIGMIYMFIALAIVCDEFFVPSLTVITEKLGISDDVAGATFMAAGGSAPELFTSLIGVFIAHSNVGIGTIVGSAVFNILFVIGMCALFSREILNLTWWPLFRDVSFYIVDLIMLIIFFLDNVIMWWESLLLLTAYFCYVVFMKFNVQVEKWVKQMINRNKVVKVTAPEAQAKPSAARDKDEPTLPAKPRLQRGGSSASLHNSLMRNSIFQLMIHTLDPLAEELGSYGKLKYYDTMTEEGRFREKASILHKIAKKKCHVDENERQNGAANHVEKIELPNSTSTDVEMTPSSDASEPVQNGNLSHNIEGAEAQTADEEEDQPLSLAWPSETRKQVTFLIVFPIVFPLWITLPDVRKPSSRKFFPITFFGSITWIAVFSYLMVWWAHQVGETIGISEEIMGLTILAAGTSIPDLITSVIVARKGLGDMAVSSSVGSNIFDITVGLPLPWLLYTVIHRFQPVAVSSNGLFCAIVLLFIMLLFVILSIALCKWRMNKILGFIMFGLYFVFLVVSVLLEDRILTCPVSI

Consider `[Cl-].[K+]` [POTASSIUM CHLORIDE], for which the EC50 was determined as 280 mM.
